Reference: patent US5783599A, “Methods of treating cancer and viral infections with 5-iodo-6-amino-and 5-iodo-6-nitroso-1 2-benzopyrones” (priority 1996, dated 1998)
Values after ≈ are worked out from the molar mass of the structure shown. “Also recorded” adds a separate entry of the source. Read-outs that look alike come from different tables or passages of the source.

How the values were obtained:
[1] = test system: GC1 III cells; assay: DNA synthesis ([3H]deoxyadenosine incorporation) in CG1 III cells; assay type: cell-based; conditions: Homo sapiens, 5-I-6-ABP 0.05 mM, 72 h, N=5
Excerpt: (§1) In this study, the following cell lines were used. Cell line CG I, a non-tumorigenic hybrid of HeLa cells with normal human fibroblasts, and its is tumorigenic revertant counterpart, CG1 III, as described in Science, 215:252 (1982). These cells were obtained from UC Irvine. […] HEp-2 human epidermoid carcinoma cells were provided by Dr. L. Aurelian (University of Maryland). E-Ras cells were-obtained from University of Cincinnati and represent an endothelial cell line transfected with pSV2neo plasmid as described in Proc. Natl. Acad. Sci., 76:1373 (1979). This cell line contains several copies of the activated human Ha-ras oncogene.
(§2) Cells were seeded to 2 cm^2 wells of Falcon tissue culture plates at a density of 6000±650 cells per well. Inhibitors were added to the seeding suspensions from stock solutions of 100 mM 6-ABP in water or 50 mM 5-1-6-ABP in dimethylsulfoxide (DMSO). […] Growth media were Dulbeccos MEM (lines #1 and 2), and Dulbeccols Modified Eagle's Medium, containing 10% fetal bovine serum and penicillin (100 μg/ml) plus streptomycin (100 μg/ml). […] Cells were then lysed in 500 μl of 0.06M NaOH and the acid precipitable radioactivity was determined.

[2] = test system: Rat-1 cells; assay: DNA synthesis ([3H]deoxyadenosine incorporation) in Rat-1 cells; assay type: cell-based; conditions: 5-I-6-ABP 0.05 mM, 72 h, N=5
Excerpt: as §1, §2

[3] = test system: E-Ras cells; assay: DNA synthesis ([3H]deoxyadenosine incorporation) in E-Ras cells; assay type: cell-based; conditions: 5-I-6-ABP 0.05 mM, 72 h, N=5
Excerpt: as §1, §2

[4] = test system: HIV; assay: HIV replication by p24 formation (ELISA) in cell culture; assay type: cell-based
[5] = test system: HIV; assay: Inhibition of syncytia formation by HIV in MT-2 cells; assay type: cell-based
[6] = test system: HIV; assay: Anti-HIV activity, overall comparison with 6-ABP; assay type: cell-based
[7] = Solubility; assay type: physicochemical; conditions: 25° C.
Excerpt: The color of the compound in the solid state depends on particle size. Large crystals are a very deep brown, small crystals, a medium brown, and when pulverized, the material in all cases is orange-colored.

[8] = Passage of blood brain barrier; conditions: in vivo
[9] = test system: malignant cell proliferation; assay: Malignant cell proliferation / cytostatic activity in cell cultures, overall; assay type: cell-based
Excerpt: as §1
Cells were seeded to 2 cm^2 wells of Falcon tissue culture plates at a density of 6000±650 cells per well. Inhibitors were added to the seeding suspensions from stock solutions of 100 mM 6-ABP in water or 50 mM 5-1-6-ABP in dimethylsulfoxide (DMSO). […] Growth media were Dulbeccos MEM (lines #1 and 2), and Dulbeccols Modified Eagle's Medium, containing 10% fetal bovine serum and penicillin (100 μg/ml) plus streptomycin (100 μg/ml). After incubation for 72 hours at 37° C. in a 5% CO2 humidified atmosphere, incorporation of [^3 H] deoxyadenosine (ICN, 18 Ci/mmol) into DNA was tested as follows: [^3 H] deoxyadenosine (450,000 dpm in 40 μl) of medium was added per well (each containing 600 μl of medium) and incubation at 37° C. was continued for 1 hour, followed by removal of the medium and rinsing of the wells 3 times with phosphate-buffered saline. Cells were then lysed in 500 μl of 0.06M NaOH and the acid precipitable radioactivity was determined.

[10] = General toxicity

Q: What does the source list for `Nc1ccc2oc(=O)ccc2c1I` [5-I-6-ABP, 5-iodo-6-amino-1,2-benzopyrone]?
A: inhibition at 50 µM [1]: -64.4%; inhibition at 50 µM [2]: -35.6%; inhibition at 50 µM [3]: -81.8%; p24 protein formation, effect relative to 3 mM 6-ABP [4]: nearly as effective; suppressing effect on p24 generation [4]: almost equivalent suppressing effect on p24 generation; inhibition of syncytia formation [5]: complete; inhibition of syncytia formation relative to 3 mM 6-ABP [5]: only slightly less inhibitory; anti-HIV activity [6]: specific, potent and non-toxic inhibitor; also recorded: highly effective against HIV; effectivity against HIV relative to 6-ABP [6]: 10-20 times; inhibition of HIV replication, reversibility [6]: temporary, reversible; solubility ([7]; water, read-out: solubility in water (saturated)): 0.37 mM (≈ 106 µg/mL); solubility ([7]; organic solvent or mixture, DMSO, read-out: solubility in DMSO (saturated)): 1900 mM (≈ 545000 µg/mL); solubility ([7]; organic solvent or mixture, ethanol, read-out: solubility in ethanol (saturated)): 4.7 mM (≈ 1350 µg/mL); blood brain barrier passage [8]: appears to cross the blood brain barrier; cellular toxicity of cytostatic effect [9]: do not involve cellular toxicity; replication of tumorigenic cell types ([9]; 6 cell lines, Table 1): profoundly inhibited; potency relative to 6-ABP ([9]; biological action spectrum, vs 6-ABP): 10-50 times; antitumor activity relative to 6-ABP ([9]; vs 6-ABP): at least 10 times; toxicity [10]: completely nontoxic; also recorded: absence of toxicity
